Data from the kinase profiling compilation of Christmann-Franck et al. (2016).

How the values were obtained:
Assay in all cases: radiometric filter-binding kinase assay, Kinase HotSpot
Settings in all cases: compound 0.5 µM; ATP 10 µM
RPS6KA5 KD2 (human) = RPS6KA5 KD2 (human) (UniProt O75582)
TAOK1 (human) = TAOK1 (human) (UniProt Q7L7X3)
[1] = test system: PRKCQ (human), Q04759 [P330L]
SRPK3 (human) = SRPK3 (human) (UniProt Q9UPE1)
CDK6 CCND3 (human) = CDK6 CCND3 (human) (UniProt P30281+Q00534)
TYRO3 (human) = TYRO3 (human) (UniProt Q06418)
SLK (human) = SLK (human) (UniProt Q9H2G2)
SIK2 (human) = SIK2 (human) (UniProt Q9H0K1)
CAMK1 (human) = CAMK1 (human) (UniProt Q14012)
GRK5 (human) = GRK5 (human) (UniProt P34947)
CDK1 CCNA2 (human) = CDK1 CCNA2 (human) (UniProt P06493+P20248)
PLK3 (human) = PLK3 (human) (UniProt Q9H4B4)
PRKCI (human) = PRKCI (human) (UniProt P41743)
CDK4 CCND3 (human) = CDK4 CCND3 (human) (UniProt P30281+P11802)
NTRK2 (human) = NTRK2 (human) (UniProt Q16620)
TGFBR2 (human) = TGFBR2 (human) (UniProt P37173)
HIPK3 (human) = HIPK3 (human) (UniProt Q9H422)
CSNK1G3 (human) = CSNK1G3 (human) (UniProt Q9Y6M4)
MATK (human) = MATK (human) (UniProt P42679)
STK33 (human) = STK33 (human) (UniProt Q9BYT3)
CAMK1D (human) = CAMK1D (human) (UniProt Q8IU85)
PAK3 (human) = PAK3 (human) (UniProt O75914)
EPHA5 (human) = EPHA5 (human) (UniProt P54756)
IGF1R (human) = IGF1R (human) (UniProt P08069)
CSNK1G2 (human) = CSNK1G2 (human) (UniProt P78368)
PLK1 (human) = PLK1 (human) (UniProt P53350)
CDK9 CCNT1 (human) = CDK9 CCNT1 (human) (UniProt P50750+O60563)
TBK1 (human) = TBK1 (human) (UniProt Q9UHD2)
CDC42BPA (human) = CDC42BPA (human) (UniProt Q5VT25)
BRSK2 (human) = BRSK2 (human) (UniProt Q8IWQ3)
SYK (human) = SYK (human) (UniProt P43405)
STK17A (human) = STK17A (human) (UniProt Q9UEE5)
FGFR2 (human) = FGFR2 (human) (UniProt P21802)
PRKX (human) = PRKX (human) (UniProt P51817)
MAP3K14 (human) = MAP3K14 (human) (UniProt Q99558)
INSR (human) = INSR (human) (UniProt P06213)
ADRBK1 (human) = ADRBK1 (human) (UniProt P25098)
PKN1 (human) = PKN1 (human) (UniProt Q16512)
CDK1 CCNB1 (human) = CDK1 CCNB1 (human) (UniProt P06493+P14635)
HCK (human) = HCK (human) (UniProt P08631)
BTK (human) = BTK (human) (UniProt Q06187)

Chain of PKN1 (human) (Q16512 whole entry, looked up): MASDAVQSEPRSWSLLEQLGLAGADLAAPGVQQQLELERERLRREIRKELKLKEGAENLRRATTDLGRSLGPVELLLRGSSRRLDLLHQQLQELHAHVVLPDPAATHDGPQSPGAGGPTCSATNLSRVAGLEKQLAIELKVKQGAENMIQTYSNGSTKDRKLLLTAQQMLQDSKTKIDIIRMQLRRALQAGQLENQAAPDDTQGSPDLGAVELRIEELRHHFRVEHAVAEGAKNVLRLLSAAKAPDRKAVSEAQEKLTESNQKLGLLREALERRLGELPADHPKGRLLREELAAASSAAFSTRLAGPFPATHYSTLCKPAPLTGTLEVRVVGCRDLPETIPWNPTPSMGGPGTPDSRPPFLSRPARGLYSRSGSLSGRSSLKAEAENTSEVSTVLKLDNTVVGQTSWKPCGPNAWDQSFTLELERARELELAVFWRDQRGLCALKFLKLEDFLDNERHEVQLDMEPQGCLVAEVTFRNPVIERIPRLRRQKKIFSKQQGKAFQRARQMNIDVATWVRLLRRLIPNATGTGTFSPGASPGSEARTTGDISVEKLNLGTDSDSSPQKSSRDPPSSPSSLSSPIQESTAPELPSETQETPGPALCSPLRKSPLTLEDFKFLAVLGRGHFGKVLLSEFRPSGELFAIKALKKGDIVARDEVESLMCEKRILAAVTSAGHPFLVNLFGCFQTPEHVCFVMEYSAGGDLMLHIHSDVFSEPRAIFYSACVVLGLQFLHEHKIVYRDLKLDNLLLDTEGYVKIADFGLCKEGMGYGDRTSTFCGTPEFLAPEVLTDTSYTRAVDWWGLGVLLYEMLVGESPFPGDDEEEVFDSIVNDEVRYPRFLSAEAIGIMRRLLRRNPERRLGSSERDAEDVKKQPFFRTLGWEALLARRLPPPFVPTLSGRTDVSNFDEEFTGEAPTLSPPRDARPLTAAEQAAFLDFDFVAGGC
Chain of HCK (human) (P08631 whole entry, looked up): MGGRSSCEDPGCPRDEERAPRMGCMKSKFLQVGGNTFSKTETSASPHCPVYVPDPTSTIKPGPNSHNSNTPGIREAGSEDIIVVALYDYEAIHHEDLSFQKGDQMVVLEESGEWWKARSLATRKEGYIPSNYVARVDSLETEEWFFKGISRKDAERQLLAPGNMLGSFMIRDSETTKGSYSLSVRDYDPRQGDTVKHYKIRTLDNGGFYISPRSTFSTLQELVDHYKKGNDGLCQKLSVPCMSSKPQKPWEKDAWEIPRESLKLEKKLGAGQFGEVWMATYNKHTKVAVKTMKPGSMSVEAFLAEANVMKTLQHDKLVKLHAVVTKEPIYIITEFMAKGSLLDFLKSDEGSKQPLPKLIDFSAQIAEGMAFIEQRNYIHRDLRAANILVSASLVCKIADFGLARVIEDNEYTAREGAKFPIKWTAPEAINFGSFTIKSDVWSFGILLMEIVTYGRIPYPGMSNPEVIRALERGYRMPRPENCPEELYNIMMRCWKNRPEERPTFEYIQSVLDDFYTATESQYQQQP
Chain of PRKX (human) (P51817 whole entry, looked up): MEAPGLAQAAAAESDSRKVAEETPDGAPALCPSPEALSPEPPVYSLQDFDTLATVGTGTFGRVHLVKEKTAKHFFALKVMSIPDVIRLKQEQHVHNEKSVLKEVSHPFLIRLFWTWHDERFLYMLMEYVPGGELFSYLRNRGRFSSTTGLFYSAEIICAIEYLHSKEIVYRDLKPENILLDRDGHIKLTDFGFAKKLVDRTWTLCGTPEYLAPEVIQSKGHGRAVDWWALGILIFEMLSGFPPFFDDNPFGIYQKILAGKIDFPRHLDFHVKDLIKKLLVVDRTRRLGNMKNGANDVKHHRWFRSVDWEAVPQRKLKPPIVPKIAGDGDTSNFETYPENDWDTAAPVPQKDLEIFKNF
Chain of MATK (human) (P42679 whole entry, looked up): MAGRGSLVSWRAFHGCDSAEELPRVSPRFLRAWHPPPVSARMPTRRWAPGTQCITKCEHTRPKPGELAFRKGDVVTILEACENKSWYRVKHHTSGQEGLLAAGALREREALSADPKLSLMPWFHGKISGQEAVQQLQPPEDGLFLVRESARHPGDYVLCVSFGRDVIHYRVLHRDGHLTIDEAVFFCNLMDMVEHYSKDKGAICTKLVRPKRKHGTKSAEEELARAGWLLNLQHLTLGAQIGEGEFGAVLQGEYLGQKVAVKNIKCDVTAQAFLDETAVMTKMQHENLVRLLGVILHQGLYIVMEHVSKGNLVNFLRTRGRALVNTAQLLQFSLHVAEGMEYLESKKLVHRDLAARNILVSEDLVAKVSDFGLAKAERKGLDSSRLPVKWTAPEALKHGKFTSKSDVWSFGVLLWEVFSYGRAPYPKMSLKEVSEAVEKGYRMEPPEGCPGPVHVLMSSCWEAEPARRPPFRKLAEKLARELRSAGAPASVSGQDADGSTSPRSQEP
Chain of TAOK1 (human) (Q7L7X3 whole entry, looked up): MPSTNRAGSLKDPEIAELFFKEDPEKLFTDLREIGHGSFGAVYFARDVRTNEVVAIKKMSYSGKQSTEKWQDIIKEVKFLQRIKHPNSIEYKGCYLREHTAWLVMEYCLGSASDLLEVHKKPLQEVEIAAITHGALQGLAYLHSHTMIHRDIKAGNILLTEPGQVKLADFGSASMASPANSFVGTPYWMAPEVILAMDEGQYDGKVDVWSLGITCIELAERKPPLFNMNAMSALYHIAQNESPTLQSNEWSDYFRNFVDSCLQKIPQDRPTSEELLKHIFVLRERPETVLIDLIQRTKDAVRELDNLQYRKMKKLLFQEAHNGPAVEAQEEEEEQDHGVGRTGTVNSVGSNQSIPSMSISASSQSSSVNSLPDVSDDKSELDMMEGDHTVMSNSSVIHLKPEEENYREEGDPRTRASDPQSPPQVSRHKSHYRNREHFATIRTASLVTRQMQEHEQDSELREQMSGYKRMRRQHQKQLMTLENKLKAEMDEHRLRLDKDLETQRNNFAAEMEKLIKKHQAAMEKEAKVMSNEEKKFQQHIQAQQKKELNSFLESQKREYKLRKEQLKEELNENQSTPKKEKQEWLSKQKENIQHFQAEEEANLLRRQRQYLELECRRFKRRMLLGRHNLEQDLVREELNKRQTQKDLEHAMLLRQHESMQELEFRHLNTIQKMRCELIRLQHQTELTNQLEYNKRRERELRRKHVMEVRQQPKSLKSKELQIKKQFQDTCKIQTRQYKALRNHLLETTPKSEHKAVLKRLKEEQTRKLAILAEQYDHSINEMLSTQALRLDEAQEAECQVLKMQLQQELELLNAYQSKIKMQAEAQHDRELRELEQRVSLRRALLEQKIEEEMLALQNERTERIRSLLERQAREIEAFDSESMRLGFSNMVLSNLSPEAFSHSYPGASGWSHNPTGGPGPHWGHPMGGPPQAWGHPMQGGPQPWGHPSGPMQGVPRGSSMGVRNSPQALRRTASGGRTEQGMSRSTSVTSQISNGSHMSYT
Chain of STK33 (human) (Q9BYT3 whole entry, looked up): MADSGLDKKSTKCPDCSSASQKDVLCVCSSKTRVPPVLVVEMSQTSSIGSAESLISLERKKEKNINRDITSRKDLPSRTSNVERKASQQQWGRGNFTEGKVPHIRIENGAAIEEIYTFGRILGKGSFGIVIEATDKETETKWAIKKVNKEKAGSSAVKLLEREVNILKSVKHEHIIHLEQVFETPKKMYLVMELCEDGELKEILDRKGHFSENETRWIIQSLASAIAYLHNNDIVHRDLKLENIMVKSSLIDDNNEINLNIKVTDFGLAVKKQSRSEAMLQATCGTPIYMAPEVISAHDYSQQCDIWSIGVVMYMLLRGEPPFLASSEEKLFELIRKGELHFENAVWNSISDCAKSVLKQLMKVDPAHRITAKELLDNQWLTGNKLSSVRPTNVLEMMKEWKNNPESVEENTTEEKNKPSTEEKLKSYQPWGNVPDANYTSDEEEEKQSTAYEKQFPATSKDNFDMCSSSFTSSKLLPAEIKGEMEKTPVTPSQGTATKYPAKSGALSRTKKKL
Chain of CDK4 CCND3 (human) (P11802 whole entry, looked up): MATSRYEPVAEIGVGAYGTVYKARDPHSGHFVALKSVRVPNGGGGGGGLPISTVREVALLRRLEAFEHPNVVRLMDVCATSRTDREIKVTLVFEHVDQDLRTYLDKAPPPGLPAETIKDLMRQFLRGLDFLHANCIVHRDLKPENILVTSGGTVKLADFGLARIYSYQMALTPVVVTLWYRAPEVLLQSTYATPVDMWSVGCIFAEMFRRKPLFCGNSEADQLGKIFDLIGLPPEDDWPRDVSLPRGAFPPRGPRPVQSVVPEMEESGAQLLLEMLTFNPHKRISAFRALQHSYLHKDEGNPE
Chain of CDK4 CCND3 (human) (P30281 whole entry, looked up): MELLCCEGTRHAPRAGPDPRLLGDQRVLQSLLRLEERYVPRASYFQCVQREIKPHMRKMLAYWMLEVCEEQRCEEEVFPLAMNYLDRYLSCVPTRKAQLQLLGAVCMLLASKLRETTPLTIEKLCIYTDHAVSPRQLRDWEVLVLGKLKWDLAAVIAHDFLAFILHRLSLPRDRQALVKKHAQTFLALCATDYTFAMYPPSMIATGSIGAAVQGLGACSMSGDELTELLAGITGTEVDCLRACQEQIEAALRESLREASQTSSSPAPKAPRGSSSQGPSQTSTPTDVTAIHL
Chain of CDK6 CCND3 (human) (P30281 whole entry, looked up): as above
Chain of CDK6 CCND3 (human) (Q00534 whole entry, looked up): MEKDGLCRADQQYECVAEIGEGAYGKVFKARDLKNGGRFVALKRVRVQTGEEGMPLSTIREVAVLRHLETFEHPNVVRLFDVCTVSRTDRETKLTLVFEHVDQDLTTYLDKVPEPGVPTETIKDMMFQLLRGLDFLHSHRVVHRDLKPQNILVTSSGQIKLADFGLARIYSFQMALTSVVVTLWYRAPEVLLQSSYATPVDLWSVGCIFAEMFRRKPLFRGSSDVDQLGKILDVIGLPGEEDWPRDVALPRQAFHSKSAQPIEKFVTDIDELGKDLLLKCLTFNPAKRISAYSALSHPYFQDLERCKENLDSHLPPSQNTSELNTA

Structure (SMILES) | residual activity (TAOK1 (human)) [%] | residual activity [1] [%] | residual activity (SRPK3 (human)) [%] | residual activity (CDK6 CCND3 (human)) [%] | residual activity (TYRO3 (human)) [%] | residual activity (SLK (human)) [%] | residual activity (SIK2 (human)) [%] | residual activity (CAMK1 (human)) [%] | residual activity (GRK5 (human)) [%] | residual activity (CDK1 CCNA2 (human)) [%] | residual activity (PLK3 (human)) [%] | residual activity (PRKCI (human)) [%] | residual activity (CDK4 CCND3 (human)) [%] | residual activity (NTRK2 (human)) [%] | residual activity (TGFBR2 (human)) [%] | residual activity (HIPK3 (human)) [%] | residual activity (CSNK1G3 (human)) [%] | residual activity (MATK (human)) [%] | residual activity (STK33 (human)) [%] | residual activity (CAMK1D (human)) [%] | also measured
Cc1cncc2cccc(S(=O)(=O)N3CCCN(C(=O)CN)C[C@H]3C)c12 | 84.2 | 105 | 99.9 | 104 | 98.9 | 90.4 | 89.4 | 102 | 97.1 | 89.2 | 98.4 | 87.4 | 105 | 102 | 132 | 105 | 106 | 94.4 | 100 | 104 | residual activity (RPS6KA5 KD2 (human)): 100%; residual activity (PAK3 (human)): 105%; residual activity (EPHA5 (human)): 95.1%; residual activity (IGF1R (human)): 110%; residual activity (CSNK1G2 (human)): 95.1%; residual activity (PLK1 (human)): 101%; residual activity (CDK9 CCNT1 (human)): 86.7%; residual activity (TBK1 (human)): 95.7%; residual activity (CDC42BPA (human)): 95.1%; residual activity (BRSK2 (human)): 85.4%; residual activity (SYK (human)): 100%; residual activity (STK17A (human)): 93.5%; residual activity (FGFR2 (human)): 98.4%; residual activity (PRKX (human)): 54.2%; residual activity (MAP3K14 (human)): 109%; residual activity (INSR (human)): 88.9%; residual activity (ADRBK1 (human)): 101%; residual activity (PKN1 (human)): 25.3%; residual activity (CDK1 CCNB1 (human)): 96.9%; residual activity (HCK (human)): 96.4%
Fc1ccc(-c2nc3n(c2-c2ccncc2)CCS3)cc1 | 97.7 | 123 | 98.5 | 108 | 104 | 110 | 108 | 107 | 103 | 94.7 | 97.8 | 90.9 | 94.9 | 103 | 137 | 109 | 97.9 | 89.4 | 96.5 | 100 | residual activity (BTK (human)): 103%; residual activity (PAK3 (human)): 104%; residual activity (EPHA5 (human)): 89.7%; residual activity (IGF1R (human)): 106%; residual activity (CSNK1G2 (human)): 76.4%; residual activity (PLK1 (human)): 101%; residual activity (CDK9 CCNT1 (human)): 94.9%; residual activity (TBK1 (human)): 90.6%; residual activity (CDC42BPA (human)): 88.7%; residual activity (SYK (human)): 98.3%; residual activity (STK17A (human)): 99.4%; residual activity (FGFR2 (human)): 106%; residual activity (PRKX (human)): 97.6%; residual activity (MAP3K14 (human)): 103%; residual activity (INSR (human)): 91.2%; residual activity (ADRBK1 (human)): 102%; residual activity (PKN1 (human)): 101%; residual activity (CDK1 CCNB1 (human)): 91.4%; residual activity (HCK (human)): 101%
